According to ChEMBL document CHEMBL1208757, “Furan based cyclic homo-oligopeptides bind G-quadruplex selectively and repress c-MYC transcription” (Bioorg Med Chem Lett, 2010):
Activity calls are given as the source filed them. The calls are words filed in the database; no cut-off is given here.

What was measured:
HeLa [1] = experiment: Induction of apoptosis in human HeLa cell line at 200 uM after 24 hrs by annexin V/conjugated 7-AAD nexin assay; format: functional
HeLa [2] = experiment: Downregulation of c-MYC gene expression in human HeLa cell line at 200 uM after 24 hrs by RT-PCR analysis; format: functional
Nucleic Acid [3] = experiment: Binding affinity to 22 mer c-MYC DNA G-quadruplex assessed as change in melting temperature at 0.2 uM by FRET assay; format: nucleic-acid assay
Nucleic Acid [4] = experiment: Binding affinity to 22 mer c-MYC DNA G-quadruplex assessed as change in melting temperature at 0.4 uM by FRET assay; format: nucleic-acid assay
Nucleic Acid [5] = experiment: Binding affinity to 22 mer c-MYC DNA G-quadruplex assessed as change in melting temperature at 0.8 uM by FRET assay; format: nucleic-acid assay
Nucleic Acid [6] = experiment: Binding affinity to 22 mer c-MYC DNA G-quadruplex assessed as change in melting temperature at 1.2 uM by FRET assay; format: nucleic-acid assay
Nucleic Acid [7] = experiment: Binding affinity to 22 mer c-MYC DNA G-quadruplex assessed as induction of quadruplex folding at 5 to 10 uM by CD spectroscopy; format: nucleic-acid assay
Calf thymus DNA = experiment: Binding affinity to calf thymus DNA assessed as change in melting temperature at 0.2 to 1.6 uM by […]; format: nucleic-acid assay; details: Bos taurus
Nucleic Acid [8] = experiment: Binding affinity to 22 mer c-MYC G-quadruplex by isothermal titration calorimetry; format: nucleic-acid assay
Nucleic Acid [9] = experiment: Binding affinity to 22 mer c-MYC G-quadruplex assessed as effect on ligand-telomeric complex formation by […]; format: nucleic-acid assay
HeLa [10] = experiment: Cytotoxicity against human HeLa cells at 100 uM after 5 days by propidium iodide staining-based flow cytometry; format: functional, cell-based
HeLa [11] = experiment: Downregulation of c-MYC gene expression in human HeLa cell line at 100 uM after 24 hrs by RT-PCR analysis; format: functional

NCC1=C2CNC(=O)C3=CC(CN)=C(CNC(=O)c4cc(CN)c(o4)CNC(=O)C(=C1)O2)O3.O=C(O)C(F)(F)F.O=C(O)C(F)(F)F.O=C(O)C(F)(F)F
Activity (HeLa [1]): 18% | inhibition at 200 µM (HeLa [2]): 50% | Tm (Nucleic Acid [3]): 2 °C | Tm (Nucleic Acid [4]): 4 °C | Tm (Nucleic Acid [5]): 6 °C | Tm (Nucleic Acid [6]): 8 °C | Activity (Nucleic Acid [7]): Active | Activity (Calf thymus DNA): inactive | K (Nucleic Acid [8]): 3.21 ×10⁵ /M | Kd (Nucleic Acid [9]): 1200 nM | Activity (HeLa [10]): inactive

NCCC(=O)NCC1=C2CNC(=O)C3=CC(CNC(=O)CCN)=C(CNC(=O)c4cc(CNC(=O)CCN)c(o4)CNC(=O)C(=C1)O2)O3.O=C(O)C(F)(F)F.O=C(O)C(F)(F)F.O=C(O)C(F)(F)F
Activity (HeLa [1]): 22% | inhibition at 100 µM (HeLa [11]): 50% | Tm (Nucleic Acid [3]): 5 °C | Tm (Nucleic Acid [4]): 12 °C | Tm (Nucleic Acid [5]): 15 °C | Tm (Nucleic Acid [6]): 20 °C | Activity (Nucleic Acid [7]): Active | Activity (Calf thymus DNA): inactive | K (Nucleic Acid [8]): 5.7 ×10⁵ /M | Kd (Nucleic Acid [9]): 2100 nM | Activity (HeLa [10]): inactive
